Patent publication US11266709B2, “Methods for the regulation of matrix metalloproteinase expression” (Stealth BioTherapeutics Corp, priority 2013, dated 2022)
Square brackets hold non-standard residues; d marks the D form. Peptide text beside a SMILES is read from it. Dmt = Cc1cc(O)cc(C)c1C[C@H](N)C(=O)O

Tests used:
[1] = system: several mammalian cell types; conditions: energy-independent manner; cited from earlier work
[2] = Survival during 6 weeks treatment after coronary occlusion; type: in vivo, rat; conditions: 74 rats randomized to peptide or water, following 6 weeks treatment
Protocol: Rats were anesthetized, ventilated, and a thoracotomy performed in the left 4th intercostal space. Temperature was maintained at 36° C. by placing the rats on a heating pad during the procedure. The pericardium was excised and the proximal left coronary artery isolated and permanently occluded with a suture. Coronary artery occlusion was confirmed by cyanosis and akinesis of the anterior wall of the ventricle. The chest was closed, air evacuated, and the rats allowed to recover. Analgesia was administered per the veterinarian. An echocardiogram was obtained at approximately 15 minutes post coronary artery occlusion. At 2 hours rats were randomized to receive chronic daily D-Arg-2′6′-Dmt-Lys-Phe-NH2 (delivered subcutaneously by an Alzet Osmotic Pump—3 mg/kg/day) or water. […] Heart rate and blood pressure were measured. A Millar catheter was inserted into the left ventricle and LV systolic pressure, LV end diastolic pressure, +dP/dt, and −dP/dt were measured. […] Postmortem LV volume was measured by filling the LV cavity with fluid and measuring the total fluid. […] Quantitative histologic analysis included: total circumference, scar circumference, non-infarcted wall circumference, total LV area, total LV cavity area, LV wall thickness (at several points), non-infarcted wall thickness; myocardial infarct expansion index. […]

Question: With 2′,6′-Dmt-D-Arg-Phe-Lys-NH2 as the compound, how does the “penetration of the plasma membrane” value [1] read?
Answer: readily penetrates

Question: With Cc1cc(O)cc(C)c1C[C@H](NC(=O)[C@H](N)CCCNC(=N)N)C(=O)N[C@@H](CCCCN)C(=O)N[C@@H](Cc1ccccc1)C(N)=O [D-Arg-2′6′-Dmt-Lys-Phe-NH2] (H-[dR][Dmt]KF-NH2) as the compound, how does the deaths during treatment [2] read?
Answer: no rats died
